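Cells were grown in 96-well plates and exposed to each compound for 48 hours at five concentrations; endpoints were interpolated linearly between bracketing concentrations, or set to the highest concentration if not reached. GI50: concentration for 50% inhibition of growth. TGI: concentration producing complete growth inhibition.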 *1 amine or outer side, *2 acyl side, *3 side chain or, on linkers, in order; H or OH if unused. Where a SMILES comes first, the peptide text is derived from it. [ ]: non-standard residue; d: D form. The star is where a group is joined. ξ: configuration not given here. X15 = CCN(CC)c1ccc2cc(N*)c(=O)oc2c1; dIva = CC[C@@](C)(N)C(=O)O; X14 = O=C(OCCN[*:1])[*:2]; Aib = CC(C)(N)C(=O)O; ξP = O=C(O)C1CCCN1; βAla = NCCC(=O)O
Test system: MDA-MB-468 breast
Assay: DTP human tumour cell line panel, 48 h

| Compound | GI50 [nM] | TGI [nM] |
| --- | --- | --- |
| COc1ccc(-c2nn(-c3cccc(Cl)c3)cc2-c2cc(-c3ccccc3)nc(N)n2)cc1 | 1720 | 3590 |
| C=C1CCC2C3(C)COC(c4ccccc4Br)OC3CCC2(C)C1C/C=C1/C(=O)OCC1OC(C)=O (centres undefined) | 1200 | 2820 |
| O=C(CCCSc1nc(-c2ccccc2)cc(-c2ccc(Cl)cc2)n1)NO | 1580 | 3890 |
| CN(C)c1ccc(C(=C2C=CC(=[N+](C)C)C=C2)c2ccc(N(C)C)cc2)cc1 | 120 | 430 |
| CS(=O)(=O)Nc1ccc(N=Cc2c(O)[nH]c3ccccc23)cc1 | > 25000 | > 25000 |
| Nc1n[nH]c2cccc(C#Cc3cccc(C(=O)Nc4cc(CN5CCOCC5)cc(C(F)(F)F)c4)c3)c12 | 3470 | 12900 |
| CCCOc1nc(SCCC)nc2c1cnn2-c1ccccc1 | > 100000 | > 100000 |
| C[C@]12CCc3sc(Nc4ccc(O)cc4)nc3C1=CC[C@@H]1[C@@H]2CC[C@]2(C)C(=O)CC[C@@H]12 | 2170 | 5800 |
| O=C(COc1cccc(/C=C2\COc3ccc(Cl)cc3C2=O)c1)c1ccc(Cl)cc1 | 2820 | 9260 |
| Nc1nc(N)c(N=O)c(OCC2CCCCC2)n1 | 15200 | 52900 |
| CC(C)c1ccc(Nc2nccc(-c3cnn4ncccc34)n2)cc1 | 271 | 833 |
| O=C(CN1CCN(c2ccccc2)CC1)N1CCN(c2nnc(-c3ccc(Cl)cc3)c(-c3ccc(Cl)cc3)n2)CC1 | 18900 | 95300 |
| CCN1C(=O)N(CC)C2C1NN=c1s/c(=C\c3cc4ccccc4[nH]3)c(=O)n12 (centres undefined) | < 10 | 8520 |
| Cn1ccnc1C(=O)/C=C/c1ccc(CC(=O)Nc2ccc(C(F)(F)F)cc2)cc1 | 2090 | 4660 |
| CN1CCN(Cc2ccc(NC(=O)c3cncc(C#Cc4cnc5ccc(OCC(F)F)nn45)c3)cc2C(F)(F)F)CC1 | 428 | 1330 |
| COc1cc(C2CC(c3ccc(N(C)C)cc3)=NN2C(C)=O)cc(OC)c1OC (centres undefined) | 1720 | > 100000 |
| COc1cc(C(=O)/C=C/c2cccnc2Nc2ccccc2)cc(OC)c1OC | 665 | 2100 |
| CCN(CC)c1ccc(C(=N)c2ccc(N(C)C)cc2)cc1 | 113 | 2250 |
| CCCCCCCOc1c(OC)cc(C2CC(=O)Nc3c2c(C)nn3-c2nc3ccccc3[nH]2)cc1OC (centres undefined) | 2450 | 7120 |
| Cc1[nH]c2ccccc2c1CCNCc1ccc(/C=C/C(=O)NO)cc1 | < 10 | 140 |

| Compound | GI50 [nM] | TGI [nM] |
| --- | --- | --- |
| CC(=O)O[C@H]1CC[C@@]2(C)[C@@H](CC[C@@H]3[C@@H]2CC[C@]2(C)C=C(C=O)C[C@@H]32)C1 | 15500 | 38200 |
| Nc1n[nH]c2ccc([C@@H]3Nc4ccc5[nH]ncc5c4[C@H]4C5C=CC(C5)[C@@H]34)cc12 (some centres undefined) | 329 | 16000 |
| OCC1OC(n2cnc3c(=S)nc[nH]c32)C(O)C1O (centres undefined) | 631 | > 100000 |
| CCN(CC)c1ccc2cc(NC(=O)OCCNC(=O)CCNC(=O)[C@H](CC(C)C)NC(=O)C(C)(C)NC(=O)C(C)(C)NC(=O)[C@H](CC(C)C)NC(=O)CCNC(=O)C(C)(C)NC(=O)[C@H](CC(C)C)NC(=O)CCNC(=O)[C@@](C)(CC)NC(=O)[C@H](C)NC(=O)CCNC(=O)C(C)(C)NC(=O)[C@H](C)NC(=O)[C@@H]3CCCN3C(=O)[C@@](C)(CC)NC(=O)[C@H](Cc3ccccc3)NC(=O)C3CCCN3C(=O)C(C)(C)NC(=O)C3CCCN3C(=O)C(C)(C)NC(C)=O)c(=O)oc2c1 (some centres undefined) (Ac-[Aib][ξP][Aib][ξP]F[dIva]PA[Aib][βAla]A[dIva][βAla]L[Aib][βAla]L[Aib][Aib]L[βAla][X14]-X15) | 2.77 | 7.74 |
| CN(C)CC1CCCCCC(CN(C)C)C1=O (centres undefined) | 502 | 2540 |
| Nc1c(C(=O)Nc2ccccc2)sc2nc3c(cc12)CN(Cc1ccccc1)CC3 | 17000 | > 100000 |
| O=C(N/N=C/c1cc([N+](=O)[O-])ccc1O)c1cccc2ccccc12 | 1520 | 4740 |
| COc1cc(C2C3=C(COC3=O)Nc3cc4c(cc32)CCC4)cc2c1OCO2 (centres undefined) | 28.1 | 147 |
| CCCCN(CCCC)c1ccc(C(=NC(C)CCCN(CC)CC)c2ccc(N(C)C)cc2)cc1 (centres undefined) | 795 | 1670 |
| CCNCCNc1cc(C2CCCCC2)c(C#N)c2nc3ccccc3n12 | 751 | 2100 |
| COCCNc1cc(NC(=O)N2CCCc3cc(CN4CCN(C)CC4=O)c(C=O)nc32)ncc1C#N | 26500 | > 50000 |
| CCOc1ccccc1/C=N\N=C(\N)N/N=C/c1ccccc1OCC | 1720 | 8480 |
| O=C(c1cccnc1)c1cc(-c2ccccn2)c(=O)n2ccccc12 | > 100000 | > 100000 |
| CCCCNC(=O)NS(=O)(=O)c1ccc(N2N=C(c3cc(C)ccc3C)CC2c2cc(OC)c(OC)c(OC)c2)cc1 (centres undefined) | 2170 | 5350 |
| FC(F)(F)c1ccc(-c2cnc(Cl)nc2NCc2cc(C(F)(F)F)cc(C(F)(F)F)c2)cc1 | 2060 | 9150 |
| O=C(OCCBr)c1ccc(Cl)c([N+](=O)[O-])c1 | 1900 | 4090 |
| CC1(C)CC[C@]23CC[C@]4(C)[C@H](CC[C@@H]5[C@@]6(C)CC[C@H](NCO)C(C)(C)[C@@H]6CC[C@]54C)[C@H]2[C@H]1OC3 | 1850 | 3710 |
| CC(C)(C#N)c1cc(C(=O)Nc2cc(Nc3ncccc3-c3ncnc4nc[nH]c34)ccc2F)cc(C(F)(F)F)c1 | – | > 4090 |
| CC1(C)CC[C@]2(C(=O)N3CCOCC3)CC[C@]3(C)C(=CC[C@@H]4[C@@]5(C)C/C(=C/c6ccncc6)C(=O)C(C)(C)[C@@H]5CC[C@]43C)[C@@H]2C1 | 712 | > 100000 |
| Nc1ccc(-c2ccc(N)cc2I)c(I)c1 | 5930 | 44900 |
